Source: patent publication US20240181123A1, “DRUG-ELUTING SUTURE FOR ATTENUATING INFLAMMATION IN WOUNDS” (University of Utah Research Foundation, priority 2022, published 2024)

Assay type: physicochemical
Protocol: In another variation of the manufacturing process involving hot-melt extrusion, a mixed/combined composition of the polymer material (often in the form of a powder) and the anti-inflammatory agent is raised to a temperature above the glass transition temperature of the polymer material. The combined composition is then subjected to hot-melt extrusion to form the suture. The temperature during the hot-melt extrusion process preferably remains at or below 140° C. We discovered that tacrolimus begins to degrade at temperatures above this limit. By carrying out the hot-melt extrusion at temperatures at or below 140° C., the process allows for the formation of the suture without causing degradation of the tacrolimus or the polymer material.

temperature above which tacrolimus begins to degrade: > 140 °C
SMILES: C=CC[C@@H]1/C=C(\C)C[C@H](C)C[C@H](OC)[C@H]2O[C@@](O)(C(=O)C(=O)N3CCCC[C@H]3C(=O)O[C@H](/C(C)=C/[C@@H]3CC[C@@H](O)[C@H](OC)C3)[C@H](C)[C@@H](O)CC1=O)[C@H](C)C[C@@H]2OC [tacrolimus]
